Measured values as given in patent publication US20200078468A1, “NEUROTENSIN RECEPTOR BINDING CONJUGATES AND FORMULATIONS THEREOF” (priority 2016, published 2020).
Square brackets hold non-standard residues; d marks the D form. Peptide text beside a SMILES is read from it. * marks the point of attachment. X2 = COc1cc2cc(c1Cl)N(C)C(=O)C[C@H](OC(=O)[C@H](C)N(C)C(=O)CCS*)[C@]1(C)O[C@H]1[C@H](C)[C@@H]1C[C@@](O)(NC(=O)O1)[C@H](OC)/C=C/C=C(\C)C2; Pen = CC(C)(S)[C@H](N)C(=O)O; Tle = CC(C)(C)[C@H](N)C(=O)O

Experiments:
human NTSR1 = target: T1, human NTSR1 (Homo sapiens, UniProt P30989); assay: radioligand-receptor binding assay, [125I] labeled neurotensin (Eurofins Panlabs); conditions: [125I] neurotensin 0.02 nM, membranes from NTSR1 expressing HEK-293 cells, 45 minute incubation, Cheng and Prusoff; read-out: NTSR1 binding Ki
T1 construct: host or cells: HEK-293 cells (membrane preparations)
T1 sequence (P30989 whole entry): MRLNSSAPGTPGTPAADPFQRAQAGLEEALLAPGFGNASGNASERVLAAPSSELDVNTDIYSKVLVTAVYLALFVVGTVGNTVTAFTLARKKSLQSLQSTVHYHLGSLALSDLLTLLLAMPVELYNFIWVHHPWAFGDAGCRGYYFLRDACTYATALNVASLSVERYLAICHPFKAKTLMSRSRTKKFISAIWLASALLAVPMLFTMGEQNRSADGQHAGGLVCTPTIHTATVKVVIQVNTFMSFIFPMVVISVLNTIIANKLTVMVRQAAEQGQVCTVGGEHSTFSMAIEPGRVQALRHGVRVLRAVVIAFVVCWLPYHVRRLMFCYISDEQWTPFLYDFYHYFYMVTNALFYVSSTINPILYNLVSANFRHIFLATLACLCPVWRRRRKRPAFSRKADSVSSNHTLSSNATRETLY
Description: Conjugates were assessed in an in vitro assay evaluating binding to NTSR1. A radioligand-receptor binding assay was conducted at Eurofins Panlabs (Taiwan) to determine the affinity of conjugates described herein to NTSR1. The assay measures binding of radiolabeled ligand, [^125I] labeled neurotensin, to human NTSR1 using membrane preparations from NTSR1 expressing HEK-293 cells (Human embryonic kidney cells 293). Membranes were incubated with radiolabeled neurotensin (0.02 nM) in the presence of conjugate/compound starting at a dose of either 100 nM, or 10 nM, using 3× serial dilutions to obtain a 6-pt curve. After a 45 minute incubation, membranes were filtered and washed 3× and counted to determine the remaining [^125I] neurotensin bound to the receptor. IC50 values were determined by a non-linear, least squares regression analysis using MathIQ™ (ID Business Solutions Ltd., UK). The Ki values were calculated using the equation of Cheng and Prusoff (Cheng and Prusoff, Biochem. Pharmacol. 22:3099-3108, 1973) using the observed IC50 of the tested conjugate/compound, the concentration of radioligand employed in the assay, and the historical values for the Kd of the ligand obtained at Eurofins.

[1] = system: SW48 (human colon cancer cells); assay: inhibition of SW48 cell proliferation (CellTiter Glo); type: cell-based; conditions: NTSR1 targeted compound; 72 hrs; read-out: SW-48 proliferation IC50
Outline: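 Cells plated at 5,000/well and grown 24 hrs were exposed to conjugates for 72 hrs at 37° C, 5% CO2, in a ten-point three-fold series starting at 10 μM; vehicle was 0.01% DMSO. Proliferation was read by CellTiter Glo. % inhibition was taken relative to vehicle, with IC50 from four-parameter nonlinear regression.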

CO[C@H]1C(=O)[C@]2(C)[C@@H](OC)C[C@H]3OC[C@@]3(OC(C)=O)[C@H]2[C@H](OC(=O)c2ccccc2)[C@]2(O)C[C@H](OC(=O)[C@H](OC(=O)CCCCCN3C(=O)CC(SC(C)(C)[C@H](NC(C)=O)C(=O)N4CCC[C@H]4C(=O)N[C@@H](CCCNC(=N)N)C(=O)N[C@@H](CCCNC(=N)N)C(=O)N4CCC[C@H]4C(=O)N[C@@H](Cc4ccc(O)cc4)C(=O)N[C@H](C(=O)N[C@@H](CC(C)C)C(=O)O)C(C)(C)C)C3=O)[C@@H](NC(=O)OC(C)(C)C)c3ccccc3)C(C)=C1C2(C)C (some centres unmarked) [Compound 4]
Ki (human NTSR1): 2.06 nM | IC50 [1]: 138 nM

COc1cc2cc(c1Cl)N(C)C(=O)C[C@H](OC(=O)[C@H](C)N(C)C(=O)CCSSC(C)(C)[C@H](NC(C)=O)C(=O)N1CCC[C@H]1C(=O)N[C@@H](CCCNC(=N)N)C(=O)N[C@@H](CCCNC(=N)N)C(=O)N1CCC[C@H]1C(=O)N[C@@H](Cc1ccc(O)cc1)C(=O)N[C@H](C(=O)N[C@@H](CC(C)C)C(=O)O)C(C)(C)C)[C@]1(C)O[C@H]1[C@H](C)[C@@H]1C[C@@](O)(NC(=O)O1)[C@H](OC)/C=C/C=C(\C)C2 [Compound 12] (Ac-[Pen](X2)PRRPY[Tle]L-OH)
Ki (human NTSR1): 1.03 nM | IC50 [1]: 15 nM

COc1cc2cc(c1Cl)N(C)C(=O)C[C@H](OC(=O)[C@H](C)N(C)C(=O)CCSC1CC(=O)N(CCCNC(=O)CNC(=O)[C@H](CC(C)C)NC(=O)[C@H](Cc3ccccc3)NC(=O)CNC(=O)CCCCCN3C(=O)CC(SC(C)(C)[C@H](NC(C)=O)C(=O)N4CCC[C@H]4C(=O)N[C@@H](CCCNC(=N)N)C(=O)N[C@@H](CCCNC(=N)N)C(=O)N4CCC[C@H]4C(=O)N[C@@H](Cc4ccc(O)cc4)C(=O)N[C@H](C(=O)N[C@@H](CC(C)C)C(=O)O)C(C)(C)C)C3=O)C1=O)[C@]1(C)O[C@H]1[C@H](C)[C@@H]1C[C@@](O)(NC(=O)O1)[C@H](OC)/C=C/C=C(\C)C2 (some centres unmarked) [Compound 16]
Ki (human NTSR1): 1.64 nM | IC50 [1]: 15 nM

COc1cc2cc(c1Cl)N(C)C(=O)C[C@H](OC(=O)[C@H](C)N(C)C(=O)CCSC1CC(=O)N(CCCNC(=O)CNC(=O)[C@H](CC(C)C)NC(=O)[C@H](Cc3ccccc3)NC(=O)CNC(=O)CCCCCN3C(=O)CC(SCCC(=O)NCCCC[C@H](NC(C)=O)C(=O)N4CCC[C@H]4C(=O)N[C@H](CCCNC(=N)N)C(=O)N[C@@H](CCCNC(=N)N)C(=O)N4CCC[C@H]4C(=O)N[C@@H](Cc4ccc(O)cc4)C(=O)N[C@H](C(=O)N[C@@H](C[Si](C)(C)C)C(=O)O)C4CCCC4)C3=O)C1=O)[C@]1(C)O[C@H]1[C@H](C)[C@@H]1C[C@@](O)(NC(=O)O1)[C@H](OC)/C=C/C=C(\C)C2 (some centres unmarked) [Compound 42]
Ki (human NTSR1): 0.64 nM

CC[C@H](C)[C@H](NC(=O)[C@H](Cc1c[nH]c2ccccc12)NC(=O)[C@@H]1CCCN1C(=O)[C@H](CCCNC(=N)N)NC(=O)[C@@H](CCCNC(=N)N)NC(=O)[C@@H]1CCCN1C(=O)[C@H](CCCCNC(=O)CCSC1CC(=O)N(CCCCCC(=O)NCC(=O)N[C@@H](Cc2ccccc2)C(=O)N[C@@H](CC(C)C)C(=O)NCC(=O)NCCCN2C(=O)CC(SCCC(=O)N(C)[C@@H](C)C(=O)O[C@H]3CC(=O)N(C)c4cc(cc(OC)c4Cl)C/C(C)=C/C=C/[C@@H](OC)[C@@]4(O)C[C@H](OC(=O)N4)[C@@H](C)[C@@H]4O[C@@]34C)C2=O)C1=O)NC(C)=O)C(=O)N[C@@H](C[Si](C)(C)C)C(=O)O (some centres unmarked) [Compound 43]
Ki (human NTSR1): 1.31 nM

CC[C@H](C)[C@H](NC(=O)[C@H](Cc1ccc(O)c(O)c1)NC(=O)[C@@H]1CCCN1C(=O)[C@H](CCCNC(=N)N)NC(=O)[C@@H](CCCNC(=N)N)NC(=O)[C@@H]1CCCN1C(=O)[C@H](CCCCNC(=O)CCSC1CC(=O)N(CCCCCC(=O)NCC(=O)N[C@@H](Cc2ccccc2)C(=O)N[C@@H](CC(C)C)C(=O)NCC(=O)NCCCN2C(=O)CC(SCCC(=O)N(C)[C@@H](C)C(=O)O[C@H]3CC(=O)N(C)c4cc(cc(OC)c4Cl)C/C(C)=C/C=C/[C@@H](OC)[C@@]4(O)C[C@H](OC(=O)N4)[C@@H](C)[C@@H]4O[C@@]34C)C2=O)C1=O)NC(C)=O)C(=O)N[C@@H](C[Si](C)(C)C)C(=O)O (some centres unmarked) [Compound 44]
Ki (human NTSR1): 0.23 nM

CC[C@H](C)[C@H](NC(=O)[C@@H](Cc1ccc(O)cc1)NC(=O)[C@@H]1CCCN1C(=O)[C@H](CCCNC(=N)N)NC(=O)[C@@H](CCCNC(=N)N)NC(=O)[C@@H]1CCCN1C(=O)[C@H](CCCCNC(=O)CCSC1CC(=O)N(CCCCCC(=O)NCC(=O)N[C@@H](Cc2ccccc2)C(=O)N[C@@H](CC(C)C)C(=O)NCC(=O)NCCCN2C(=O)CC(SCCC(=O)N(C)[C@@H](C)C(=O)O[C@H]3CC(=O)N(C)c4cc(cc(OC)c4Cl)C/C(C)=C/C=C/[C@@H](OC)[C@@]4(O)C[C@H](OC(=O)N4)[C@@H](C)[C@@H]4O[C@@]34C)C2=O)C1=O)NC(C)=O)C(=O)N[C@@H](C[Si](C)(C)C)C(=O)O (some centres unmarked) [Compound 45]
Ki (human NTSR1): > 10 nM

CC[C@H](C)[C@H](NC(=O)[C@H](Cc1ccc(OC)c(OC)c1)NC(=O)[C@@H]1CCCN1C(=O)[C@H](CCCNC(=N)N)NC(=O)[C@@H](CCCNC(=N)N)NC(=O)[C@@H]1CCCN1C(=O)[C@H](CCCCNC(=O)CCSC1CC(=O)N(CCCCCC(=O)NCC(=O)N[C@@H](Cc2ccccc2)C(=O)N[C@@H](CC(C)C)C(=O)NCC(=O)NCCCN2C(=O)CC(SCCC(=O)N(C)[C@@H](C)C(=O)O[C@H]3CC(=O)N(C)c4cc(cc(OC)c4Cl)C/C(C)=C/C=C/[C@@H](OC)[C@@]4(O)C[C@H](OC(=O)N4)[C@@H](C)[C@@H]4O[C@@]34C)C2=O)C1=O)NC(C)=O)C(=O)N[C@@H](C[Si](C)(C)C)C(=O)O (some centres unmarked) [Compound 46]
Ki (human NTSR1): > 10 nM

CC[C@H](C)[C@H](NC(=O)[C@H](Cc1ccc(Cl)c(Cl)c1)NC(=O)[C@@H]1CCCN1C(=O)[C@H](CCCNC(=N)N)NC(=O)[C@@H](CCCNC(=N)N)NC(=O)[C@@H]1CCCN1C(=O)[C@H](CCCCNC(=O)CCSC1CC(=O)N(CCCCCC(=O)NCC(=O)N[C@@H](Cc2ccccc2)C(=O)N[C@@H](CC(C)C)C(=O)NCC(=O)NCCCN2C(=O)CC(SCCC(=O)N(C)[C@@H](C)C(=O)O[C@H]3CC(=O)N(C)c4cc(cc(OC)c4Cl)C/C(C)=C/C=C/[C@@H](OC)[C@@]4(O)C[C@H](OC(=O)N4)[C@@H](C)[C@@H]4O[C@@]34C)C2=O)C1=O)NC(C)=O)C(=O)N[C@@H](C[Si](C)(C)C)C(=O)O (some centres unmarked) [Compound 47]
Ki (human NTSR1): > 10 nM

COc1cc2cc(c1Cl)N(C)C(=O)C[C@H](OC(=O)[C@H](C)N(C)C(=O)CCSC1CC(=O)N(CCCNC(=O)CNC(=O)[C@H](CC(C)C)NC(=O)[C@H](Cc3ccccc3)NC(=O)CNC(=O)CCCCCN3C(=O)CC(SCCC(=O)NCCCC[C@H](NC(C)=O)C(=O)N4CCC[C@H]4C(=O)N[C@@H](CCCCN)C(=O)N[C@@H](CCCCN)C(=O)N4CCC[C@H]4C(=O)N[C@@H](Cc4ccc(O)cc4)C(=O)N[C@@H](C[Si](C)(C)C)C(=O)N[C@@H](C[Si](C)(C)C)C(=O)O)C3=O)C1=O)[C@]1(C)O[C@H]1[C@H](C)[C@@H]1C[C@@](O)(NC(=O)O1)[C@H](OC)/C=C/C=C(\C)C2 (some centres unmarked) [Compound 48]
Ki (human NTSR1): > 10 nM

COc1cc2cc(c1Cl)N(C)C(=O)C[C@H](OC(=O)[C@H](C)N(C)C(=O)CCSC1CC(=O)N(CCCNC(=O)CNC(=O)[C@H](CC(C)C)NC(=O)[C@H](Cc3ccccc3)NC(=O)CNC(=O)CCCCCN3C(=O)CC(SCCC(=O)NCCCC[C@H](NC(=O)c4ccc(N=[N+]=[N-])cc4)C(=O)N4CCC[C@H]4C(=O)N(C)[C@@H](CCCNC(=N)N)C(=O)N[C@@H](CCCNC(=N)N)C(=O)N4CCC[C@H]4C(=O)N[C@@H](Cc4ccc(O)cc4)C(=O)N[C@H](C(=O)N[C@@H](CC(C)C)C(=O)O)C(C)(C)C)C3=O)C1=O)[C@]1(C)O[C@H]1[C@H](C)[C@@H]1C[C@@](O)(NC(=O)O1)[C@H](OC)/C=C/C=C(\C)C2 (some centres unmarked) [Compound 49]
Ki (human NTSR1): 0.18 nM
